Experimental findings from patent US11352400B2, “PI3K gamma inhibitor peptide for treatment of respiratory system diseases” (Kither Biotech S.r.I., priority 2014, dated 2022) are described below.

One assay relates to PDE4D. In words: Phosphodiesterase activity in anti-PDE4D immunoprecipitates from treated tracheal smooth muscle cells. In kind it is cell-based, mouse. The following applies: tracheal smooth muscle cells of wild-type mice (PI3Kγ+/+); 50 μM, 30 minutes. The protocol:
For protein extraction from murine tracheal smooth muscle cells (mTSMCs) and human bronchial smooth muscle cells (hBSMCs), cells were treated with the indicated drugs/peptides and immediately lysed in cold lysis buffer containing 120 mmol/L NaCl, 50 mmol/L Tris-HCl (pH 8.0), complete protease inhibitors (Roche Applied Science, Indianapolis, Ind.) and phosphatase inhibitors (50 mmol/L sodium fluoride, 1 mmol/L sodium orthovanadate and 10 mmol/L sodium pyrophosphate). After 30 min of incubation on ice, lysates were centrifuged at 13000 rpm for 10 min at 4° C. and used for either Western blotting or subjected to immunoprecipitation and measurements of phosphodiesterase activity. […]
Phosphodiesterase activity in immunoprecipitates was measured according to the two-step method of Thompson and Appleman, as previously described (2), with minor modifications. […] The amount of radiolabeled adenosine in the supernatant was quantified by scintillation counting (Ultima Gold liquid scintillation from Perkin Elmer, Waltham, Mass.).
Murine tracheal smooth muscle cells were cultured from explants of trachea using previously described methods with modifications. […] More than 90% of these cells were smooth muscle cells, as determined by immunofluorescence performed with an antibody specific for smooth muscle actin. […]

The test system of assay [1] is Cav1.2 subunit (Ser-1928) of the L-type calcium channel (LTCC). In words: Western blot of cAMP-dependent phosphorylation of Cav1.2 in hBSMCs. In kind it is cell-based, human. The following applies: 50 μM, 30 minutes, vs vehicle or P1. The method, then:
For protein extraction from murine tracheal smooth muscle cells (mTSMCs) and human bronchial smooth muscle cells (hBSMCs), cells were treated with the indicated drugs/peptides and immediately lysed in cold lysis buffer containing 120 mmol/L NaCl, 50 mmol/L Tris-HCl (pH 8.0), complete protease inhibitors (Roche Applied Science, Indianapolis, Ind.) and phosphatase inhibitors (50 mmol/L sodium fluoride, 1 mmol/L sodium orthovanadate and 10 mmol/L sodium pyrophosphate). After 30 min of incubation on ice, lysates were centrifuged at 13000 rpm for 10 min at 4° C. and used for either Western blotting or subjected to immunoprecipitation and measurements of phosphodiesterase activity.
(In general: Immunoblotting shows a protein as a band on a membrane.)

Assay [2] deals with airway hyperreactivity induced by the muscarinic agonist methacholine in healthy mice. The assay is described as follows: Airway hyperreactivity to methacholine in healthy mice. In kind it is in vivo, BALB/C mice. The following applies: peptide 1.5 μg or equimolar P1, increasing doses of methacholine.
Another assay deals with CFTR. The assay is described as follows: cAMP-mediated (PKA) phosphorylation of CFTR in NuLi-1 cells. To be noted: 30 minutes. In kind it is cell-based, human. The method, then: (§1) Human airway epithelial cell lines expressing a wild-type CFTR (NuLi-1) or with the ΔF508 mutation (CuFi-1) were purchased from ATCC (NuLi-1 product code: ATCC® CRL-4011™; CuFi-1 product code: ATCC® CRL-4013™). Cells were cultured in Dulbecco's Modified Eagle Medium (DMEM, Gibco, Carlsbad, Calif.) supplemented with 10% fetal bovine serum (FBS), 30 μg/mL of penicillin, 100 μg/mL of streptomycin and 300 μg/mL hygromycin B (Gibco, Carlsbad, Calif.).
For immunoprecipitation assays, protein extracts were pre-incubated with 30 μL of a 1:1 mixture of protein A or G and sepharose (Amersham Biosciences, Buckinghamshire, UK) and subsequently incubated with 20 μL of a 1:1 mixture of protein A or G and sepharose and […] of primary antibody for each mg of protein, for 2 hours at 4° C. Immune complexes were washed extensively with lysis buffer and used for Western blotting or subjected to measurements of phosphodiesterase activity.
The antibody that recognizes substrates phosphorylated by PKA (P-PKA substrate) was purchased from Cell Signaling Technology (Danvers, Mass., USA; product code: #9621) and the antibody against CFTR clone M3A7 from Millipore (Billerica, Mass., USA; product code: 05-583).

A further assay deals with wild-type CFTR. In words: Chloride currents in Ussing chamber, NuLi-1 cells. To be noted: peptide 10-30 μM, P1 30 μM. In kind it is cell-based, human. The method, then: as §1
(§2) To measure chloride currents in normal and ΔF508 primary human bronchial epithelial cells, cells were cultured on 1.12 cm^2 Snapwell inserts. Filters were mounted in Ussing chambers, and a chloride gradient was applied by incubating the cells in a basolateral high-chloride buffer containing (in mmol/L): 140 NaCl, 5 KCl, 0.36 K2HPO4, 0.44 KH2PO4, 1.3 CaCl2, 0.5 MgCl2, 4.2 NaHCO3, 10 HEPES, and 10 glucose, at pH 7.4 and an apical low-chloride buffer containing (in mmol/L): 133.3 Na-gluconate, 5 K-gluconate, 2.5 NaCl, 0.36 K2HPO4, 0.44 KH2PO4, 5.7 CaCl2, 0.5 MgCl2, 4.2 NaHCO3, 10 HEPES, and 10 mannitol, at pH 7.4. Buffers were aerated with a mixture of 95% O2 and 5% CO2 and the temperature was maintained at 37° C. during the experiment. […] After a stabilization period of 30 minutes, drugs were added at specific times, while the current was continuously recorded.

The next assay has as its system ΔF508-CFTR. The assay is described as follows: Chloride currents in Ussing chamber, CuFi-1 cells. In kind it is cell-based, human. The following applies: CuFi-1 cells corrected with VX-809 (20 μM, 24 hours); peptide 10 μM in the presence of VX-770 10 μM. The method, then:
as §1, §2

In the case of “RQIKIWFQNRRMKWKKGKATHRSPGQIHLVQRHPPSEESQAF (fusion peptide comprising SEQ ID No.1 and SEQ ID No.3) [Trojan peptide derived from PI3Kγ]”, the “catalytic activity of PDE4D” value in the assay with PDE4D is “significantly reduced”. In assay [1], the “cAMP-mediated phosphorylation of Cav1.2” value is recorded as “significantly higher”. For the same sequence, the “airway hyperreactivity induced by methacholine (average lung resistance)” value in assay [2] is recorded as “significantly attenuated”. The “CFTR phosphorylation (cAMP-mediated)” value in the assay with CFTR (25 μM, vs vehicle or P1) is listed as “significantly higher”. Besides, the “cAMP-dependent CFTR phosphorylation induced by a PDE4 inhibitor” value in the assay with CFTR (peptide 25 μM together with Rolipram 10 μM) was “further enhanced”. The “CFTR-dependent Cl− currents” value in the assay on wild-type CFTR is listed as “increased significantly”. The “increase of the CFTR currents over basal activity” value with ΔF508-CFTR is “about 5 fold”.
